Data taken from patent US8586550B2, “Thiazole derivatives as SGLT2 inhibitors and pharmaceutical composition comprising same” (Green Cross Corporation, priority 2010, dated 2013).

Target: T1, Human SGLT2 (hSGLT2) (Homo sapiens, UniProt P31639)
T1 construct: expressed in transfected cells
T1 sequence (P31639 1-672): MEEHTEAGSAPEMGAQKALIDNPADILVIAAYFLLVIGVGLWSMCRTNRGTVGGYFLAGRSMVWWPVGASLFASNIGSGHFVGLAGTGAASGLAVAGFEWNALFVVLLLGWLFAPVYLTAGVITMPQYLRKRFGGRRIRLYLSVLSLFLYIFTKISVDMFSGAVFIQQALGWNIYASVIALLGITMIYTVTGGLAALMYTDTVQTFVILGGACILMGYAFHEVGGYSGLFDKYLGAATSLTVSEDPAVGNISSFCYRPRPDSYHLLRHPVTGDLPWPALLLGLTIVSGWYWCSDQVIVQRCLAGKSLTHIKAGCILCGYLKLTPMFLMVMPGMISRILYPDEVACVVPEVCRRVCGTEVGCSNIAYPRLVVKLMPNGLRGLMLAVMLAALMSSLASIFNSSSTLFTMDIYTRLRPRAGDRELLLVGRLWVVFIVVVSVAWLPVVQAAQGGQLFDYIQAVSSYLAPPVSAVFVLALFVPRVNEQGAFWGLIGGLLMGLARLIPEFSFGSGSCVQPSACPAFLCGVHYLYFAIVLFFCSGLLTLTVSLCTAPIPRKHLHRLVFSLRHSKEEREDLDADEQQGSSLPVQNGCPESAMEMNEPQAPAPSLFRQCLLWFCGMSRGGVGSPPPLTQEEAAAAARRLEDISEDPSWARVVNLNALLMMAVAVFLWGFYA
Test: Sodium-dependent glucose transport (14C-AMG uptake) assay in CHO cells stably expressing hSGLT2
Format: cell-based
Settings: CHO cells expressing hSGLT2, 14C-AMG uptake, 37° C. for 2 h; single determinations; read-out: hSGLT2 Inhibitory Activity IC50
How it was run: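 CHO cells stably expressing human SGLT2, preincubated 10 min at 37 °C in sodium-free choline buffer, then 2 h at 37 °C in Na+ buffer with 1 mM AMG plus 8 μM 14C-AMG and inhibitor. Washed cells counted by scintillation; IC50 by nonlinear regression.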

Point of comparison: COc1cc(Cl)c(Cc2ncc(-c3ccccc3)s2)cc1[C@@H]1O[C@H](CO)[C@@H](O)[C@H](O)[C@H]1O [Example 73, (2S,3R,4R,5S,6R)-2-(4-Chloro-2-methoxy-5-((5-phenylthiazol-2-yl)methyl)phenyl)-6-(hydroxymethyl)tetrahydro-2H-pyran-3,4,5-triol], IC50 2.01 nM. Against it:
- OC[C@H]1O[C@@H](c2ccc(C(F)(F)F)c(Cc3ncc(-c4ccsc4)s3)c2)[C@H](O)[C@@H](O)[C@@H]1O [Example 50, (2R,3S,4R,5R,6S)-2-(Hydroxymethyl)-6-(3-((5-(thiophen-3-yl)thiazol-2-yl)methyl)-4-(trifluoromethyl)phenyl)tetrahydro-2H-pyran-3,4,5-triol] — 7.3-fold higher, 14.6 nM
- OC[C@H]1O[C@@H](c2ccc(C(F)(F)F)c(Cc3ncc(-c4ccccc4)s3)c2)[C@H](O)[C@@H](O)[C@@H]1O [Example 51, (2R,3S,4R,5R,6S)-2-(Hydroxymethyl)-6-(3-((5-phenylthiazol-2-yl)methyl)-4-(trifluoromethyl)phenyl)tetrahydro-2H-pyran-3,4,5-triol] — 10-fold higher, 20.8 nM
- OC[C@H]1O[C@@H](c2ccc(C(F)(F)F)c(Cc3ncc(-c4ccc(F)cc4)s3)c2)[C@H](O)[C@@H](O)[C@@H]1O [Example 52, (2S,3R,4R,5S,6R)-2-(3-((5-(4-Fluorophenyl)thiazol-2-yl)methyl)-4-(trifluoromethyl)phenyl)-6-(hydroxymethyl)tetrahydro-2H-pyran-3,4,5-triol] — 43-fold higher, 87.2 nM
- OC[C@H]1O[C@@H](c2cc(Cc3ncc(-c4ccco4)s3)c(Cl)cc2F)[C@H](O)[C@@H](O)[C@@H]1O [Example 53, (2S,3R,4R,5S,6R)-2-(4-Chloro-2-fluoro-5-((5-(furan-2-yl)thiazol-2-yl)methyl)phenyl)-6-(hydroxymethyl)tetrahydro-2H-pyran-3,4,5-triol] — 1.7-fold higher, 3.49 nM
- OC[C@H]1O[C@@H](c2cc(Cc3ncc(-c4ccoc4)s3)c(Cl)cc2F)[C@H](O)[C@@H](O)[C@@H]1O [Example 54, (2S,3R,4R,5S,6R)-2-(4-Chloro-2-fluoro-5-((5-(furan-3-yl)thiazol-2-yl)methyl)phenyl)-6-(hydroxymethyl)tetrahydro-2H-pyran-3,4,5-triol] — 2.7-fold higher, 5.35 nM
- OC[C@H]1O[C@@H](c2cc(Cc3ncc(-c4cccs4)s3)c(Cl)cc2F)[C@H](O)[C@@H](O)[C@@H]1O [Example 55, (2S,3R,4R,5S,6R)-2-(4-Chloro-2-fluoro-5-((5-(thiophen-2-yl)thiazol-2-yl)methyl)phenyl)-6-(hydroxymethyl)tetrahydro-2H-pyran-3,4,5-triol] — 1.9-fold higher, 3.88 nM
- OC[C@H]1O[C@@H](c2cc(Cc3ncc(-c4ccsc4)s3)c(Cl)cc2F)[C@H](O)[C@@H](O)[C@@H]1O [Example 56, (2S,3R,4R,5S,6R)-2-(4-Chloro-2-fluoro-5-((5-(thiophen-3-yl)thiazol-2-yl)methyl)phenyl)-6-(hydroxymethyl)tetrahydro-2H-pyran-3,4,5-triol] — within 1.5-fold, 2.12 nM
- OC[C@H]1O[C@@H](c2cc(Cc3ncc(-c4ccccc4)s3)c(Cl)cc2F)[C@H](O)[C@@H](O)[C@@H]1O [Example 57, (2S,3R,4R,5S,6R)-2-(4-Chloro-2-fluoro-5-((5-phenylthiazol-2-yl)methyl)phenyl)-6-(hydroxymethyl)tetrahydro-2H-pyran-3,4,5-triol] — 2.3-fold higher, 4.57 nM
- OC[C@H]1O[C@@H](c2cc(Cc3ncc(-c4ccco4)s3)c(Cl)cc2Cl)[C@H](O)[C@@H](O)[C@@H]1O [Example 59, (2S,3R,4R,5S,6R)-2-(2,4-Dichloro-5-((5-(furan-2-yl)thiazol-2-yl)methyl)phenyl)-6-(hydroxymethyl)tetrahydro-2H-pyran-3,4,5-triol] — 2.7-fold higher, 5.43 nM
- OC[C@H]1O[C@@H](c2cc(Cc3ncc(-c4ccoc4)s3)c(Cl)cc2Cl)[C@H](O)[C@@H](O)[C@@H]1O [Example 60, (2S,3R,4R,5S,6R)-2-(2,4-Dichloro-5-((5-(furan-3-yl)thiazol-2-yl)methyl)phenyl)-6-(hydroxymethyl)tetrahydro-2H-pyran-3,4,5-triol] — 6.6-fold higher, 13.3 nM
- OC[C@H]1O[C@@H](c2cc(Cc3ncc(-c4cccs4)s3)c(Cl)cc2Cl)[C@H](O)[C@@H](O)[C@@H]1O [Example 61, (2S,3R,4R,5S,6R)-2-(2,4-Dichloro-5-((5-(thiophen-2-yl)thiazol-2-yl)methyl)phenyl)-6-(hydroxymethyl)tetrahydro-2H-pyran-3,4,5-triol] — 2.4-fold higher, 4.77 nM
- OC[C@H]1O[C@@H](c2cc(Cc3ncc(-c4ccsc4)s3)c(Cl)cc2Cl)[C@H](O)[C@@H](O)[C@@H]1O [Example 62, (2S,3R,4R,5S,6R)-2-(2,4-Dichloro-5-((5-(thiophen-3-yl)thiazol-2-yl)methyl)phenyl)-6-(hydroxymethyl)tetrahydro-2H-pyran-3,4,5-triol] — within 1.5-fold, 2.31 nM
- Cc1cnc(Cc2cc([C@@H]3O[C@H](CO)[C@@H](O)[C@H](O)[C@H]3O)c(Cl)cc2Cl)s1 [Example 63, (2S,3R,4R,5S,6R)-2-(2,4-Dichloro-5-((5-methylthiazol-2-yl)methyl)phenyl)-6-(hydroxymethyl)tetrahydro-2H-pyran-3,4,5-triol] — 24-fold higher, 49.1 nM
- CCc1cnc(Cc2cc([C@@H]3O[C@H](CO)[C@@H](O)[C@H](O)[C@H]3O)c(Cl)cc2Cl)s1 [Example 64, (2S,3R,4R,5S,6R)-2-(2,4-Dichloro-5-((5-ethylthiazol-2-yl)methyl)phenyl)-6-(hydroxymethyl)tetrahydro-2H-pyran-3,4,5-triol] — 13-fold higher, 26.3 nM
- CCCc1cnc(Cc2cc([C@@H]3O[C@H](CO)[C@@H](O)[C@H](O)[C@H]3O)c(Cl)cc2Cl)s1 [Example 65, (2S,3R,4R,5S,6R)-2-(2,4-Dichloro-5-((5-propylthiazol-2-yl)methyl)phenyl)-6-(hydroxymethyl)tetrahydro-2H-pyran-3,4,5-triol] — 22-fold higher, 43.7 nM
- CCCCc1cnc(Cc2cc([C@@H]3O[C@H](CO)[C@@H](O)[C@H](O)[C@H]3O)c(Cl)cc2Cl)s1 [Example 66, (2S,3R,4R,5S,6R)-2-(5-((5-Butylthiazol-2-yl)methyl)-2,4-dichlorophenyl)-6-(hydroxymethyl)tetrahydro-2H-pyran-3,4,5-triol] — 30-fold higher, 60.5 nM
- CCCCCCc1cnc(Cc2cc([C@@H]3O[C@H](CO)[C@@H](O)[C@H](O)[C@H]3O)c(Cl)cc2Cl)s1 [Example 67, (2S,3R,4R,5S,6R)-2-(2,4-Dichloro-5-((5-hexylthiazol-2-yl)methyl)phenyl)-6-(hydroxymethyl)tetrahydro-2H-pyran-3,4,5-triol] — 19-fold higher, 38.7 nM
- OC[C@H]1O[C@@H](c2cc(Cc3ncc(C4CCCC4)s3)c(Cl)cc2Cl)[C@H](O)[C@@H](O)[C@@H]1O [Example 68, (2S,3R,4R,5S,6R)-2-(2,4-Dichloro-5-((5-cyclopentylthiazol-2-yl)methyl)phenyl)-6-(hydroxymethyl)tetrahydro-2H-pyran-3,4,5-triol] — 16-fold higher, 33 nM
- COc1cc(Cl)c(Cc2ncc(-c3ccco3)s2)cc1[C@@H]1O[C@H](CO)[C@@H](O)[C@H](O)[C@H]1O [Example 69, (2S,3R,4R,5S,6R)-2-(4-Chloro-5-((5-(furan-2-yl)thiazol-2-yl)methyl)-2-methoxyphenyl)-6-(hydroxymethyl)tetrahydro-2H-pyran-3,4,5-triol] — within 1.5-fold, 2.24 nM
- COc1cc(Cl)c(Cc2ncc(-c3ccoc3)s2)cc1[C@@H]1O[C@H](CO)[C@@H](O)[C@H](O)[C@H]1O [Example 70, (2S,3R,4R,5S,6R)-2-(4-Chloro-5-((5-(furan-3-yl)thiazol-2-yl)methyl)-2-methoxyphenyl)-6-(hydroxymethyl)tetrahydro-2H-pyran-3,4,5-triol] — 3.7-fold higher, 7.37 nM
- COc1cc(Cl)c(Cc2ncc(-c3ccsc3)s2)cc1[C@@H]1O[C@H](CO)[C@@H](O)[C@H](O)[C@H]1O [Example 72, (2S,3R,4R,5S,6R)-2-(4-Chloro-2-methoxy-5-((5-(thiophen-3-yl)thiazol-2-yl)methyl)phenyl)-6-(hydroxymethyl)tetrahydro-2,1-pyran-3,4,5-triol] — 1.6-fold lower, 1.29 nM
- COc1cc(Cl)c(Cc2ncc(-c3ccc(F)cc3)s2)cc1[C@@H]1O[C@H](CO)[C@@H](O)[C@H](O)[C@H]1O [Example 74, (2S,3R,4R,5S,6R)-2-(4-Chloro-5-((5-(4-fluorophenyl)thiazol-2-yl)methyl)-2-methoxyphenyl)-6-(hydroxymethyl)tetrahydro-2H-pyran-3,4,5-triol] — 3-fold higher, 6.08 nM
- CCCCCCc1cnc(Cc2cc([C@@H]3O[C@H](CO)[C@@H](O)[C@H](O)[C@H]3O)c(OC)cc2Cl)s1 [Example 75, (2S,3R,4R,5S,6R)-2-(4-Chloro-5-((5-hexylthiazol-2-yl)methyl)-2-methoxyphenyl)-6-(hydroxymethyl)tetrahydro-2H-pyran-3,4,5-triol] — 2.2-fold higher, 4.48 nM
- COc1cc(Cl)c(Cc2ncc(C3CCCC3)s2)cc1[C@@H]1O[C@H](CO)[C@@H](O)[C@H](O)[C@H]1O [Example 76, (2S,3R,4R,5S,6R)-2-(4-Chloro-5-((5-cyclopentylthiazol-2-yl)methyl)-2-methoxyphenyl)-6-(hydroxymethyl)tetrahydro-2H-pyran-3,4,5-triol] — 4.7-fold higher, 9.35 nM
